Data: patent US20240254119A1 (THIRD HARMONIC BIO, INC., priority 2022, published 2024)

Assays:
[1] = Kinetic solubility assay; assay type: physicochemical; conditions: kinetic solubility, 50 mM PB (pH 7.4), shaken 24 hours at RT
How it was run: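 Concentration in the filtrate was determined by UPLC-UV or HPLC-UV with a standard curve. Before that, compound (10 mM DMSO stock) in 50 mM PB at pH 7.4 was agitated 24 h at room temperature, then PTFE-filtered with centrifugation.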

[2] = target: T1, CSF-1R (Homo sapiens, UniProt P07333); experiment: HTRF biochemical assay, CSF-1R; conditions: Table 4
T1 construct: purchased Invitrogen PV3249 (lot 662393N)
T1 sequence (P07333 20-972): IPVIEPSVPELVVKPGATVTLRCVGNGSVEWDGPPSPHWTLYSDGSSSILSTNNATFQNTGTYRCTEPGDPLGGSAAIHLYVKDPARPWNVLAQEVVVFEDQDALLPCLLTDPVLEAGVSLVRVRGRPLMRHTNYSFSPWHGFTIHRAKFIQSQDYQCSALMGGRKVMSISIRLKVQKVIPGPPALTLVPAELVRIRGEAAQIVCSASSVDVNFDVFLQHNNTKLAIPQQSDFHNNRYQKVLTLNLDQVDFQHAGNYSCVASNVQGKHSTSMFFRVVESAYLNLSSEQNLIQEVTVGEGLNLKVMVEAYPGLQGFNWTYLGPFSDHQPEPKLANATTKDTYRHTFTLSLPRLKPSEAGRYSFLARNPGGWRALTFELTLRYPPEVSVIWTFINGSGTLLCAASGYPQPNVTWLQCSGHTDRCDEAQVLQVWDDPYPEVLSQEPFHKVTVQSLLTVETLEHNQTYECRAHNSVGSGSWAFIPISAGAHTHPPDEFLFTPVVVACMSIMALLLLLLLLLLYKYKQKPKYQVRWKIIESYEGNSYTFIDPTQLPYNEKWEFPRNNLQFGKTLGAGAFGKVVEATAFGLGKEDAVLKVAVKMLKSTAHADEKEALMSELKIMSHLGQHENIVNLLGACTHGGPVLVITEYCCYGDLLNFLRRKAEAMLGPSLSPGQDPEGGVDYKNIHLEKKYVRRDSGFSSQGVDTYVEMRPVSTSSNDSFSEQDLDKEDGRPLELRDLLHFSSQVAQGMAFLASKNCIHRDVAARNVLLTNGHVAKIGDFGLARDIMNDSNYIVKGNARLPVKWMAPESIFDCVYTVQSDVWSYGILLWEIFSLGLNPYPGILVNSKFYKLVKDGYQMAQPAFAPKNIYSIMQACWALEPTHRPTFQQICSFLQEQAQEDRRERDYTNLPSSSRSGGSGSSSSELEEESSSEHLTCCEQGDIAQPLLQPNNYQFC
Method: (§1) Exemplary compounds were tested for ability to inhibit the phosphorylation of a peptide substrate by the tyrosine kinase wt KIT, PDGFRα, or CSF-1R. Assay procedures and results are described below.
(§2) Enzyme, substrate, and cofactors (ATP and Mn^2+) are combined in a well of a microtiter plate and incubated for 3 hours at 25° C. At the end of the incubation, the reaction is quenched by the addition of an EDTA-containing buffer.
(§3) The substrate used in the CSF-1R and PDGFRα assay is FAM-[…]-CONH2 (FAM is carboxyfluorescein). Peptide should be >95% purity. The substrate for the KIT assay is FAM-[…]-NH2.
(§4) • 1. To a well of a 384-wellplate add 5 μL of 2× enzyme buffer (or control). • 2. Add 100 nL of 100× compound. Enzyme and compound may be pre-incubated at this time if desired. • 3. Add 5 μL of 2× substrate buffer. • 4. Incubate plate at 25° C. for 3 hours. • 5. Add 10 uL of anti-phosphotyrosine antibody buffer. • 6. Read plate in BioTek Synergy Reader. Reaction Conditions for wtKIT Assay

[3] = target: T2, wtKIT (Homo sapiens, UniProt P10721); experiment: HTRF biochemical assay, wtKIT (phosphorylation of a peptide substrate); conditions: Table 4
T2 construct: 1888289AM in the reaction mixtures
T2 sequence (P10721 26-976): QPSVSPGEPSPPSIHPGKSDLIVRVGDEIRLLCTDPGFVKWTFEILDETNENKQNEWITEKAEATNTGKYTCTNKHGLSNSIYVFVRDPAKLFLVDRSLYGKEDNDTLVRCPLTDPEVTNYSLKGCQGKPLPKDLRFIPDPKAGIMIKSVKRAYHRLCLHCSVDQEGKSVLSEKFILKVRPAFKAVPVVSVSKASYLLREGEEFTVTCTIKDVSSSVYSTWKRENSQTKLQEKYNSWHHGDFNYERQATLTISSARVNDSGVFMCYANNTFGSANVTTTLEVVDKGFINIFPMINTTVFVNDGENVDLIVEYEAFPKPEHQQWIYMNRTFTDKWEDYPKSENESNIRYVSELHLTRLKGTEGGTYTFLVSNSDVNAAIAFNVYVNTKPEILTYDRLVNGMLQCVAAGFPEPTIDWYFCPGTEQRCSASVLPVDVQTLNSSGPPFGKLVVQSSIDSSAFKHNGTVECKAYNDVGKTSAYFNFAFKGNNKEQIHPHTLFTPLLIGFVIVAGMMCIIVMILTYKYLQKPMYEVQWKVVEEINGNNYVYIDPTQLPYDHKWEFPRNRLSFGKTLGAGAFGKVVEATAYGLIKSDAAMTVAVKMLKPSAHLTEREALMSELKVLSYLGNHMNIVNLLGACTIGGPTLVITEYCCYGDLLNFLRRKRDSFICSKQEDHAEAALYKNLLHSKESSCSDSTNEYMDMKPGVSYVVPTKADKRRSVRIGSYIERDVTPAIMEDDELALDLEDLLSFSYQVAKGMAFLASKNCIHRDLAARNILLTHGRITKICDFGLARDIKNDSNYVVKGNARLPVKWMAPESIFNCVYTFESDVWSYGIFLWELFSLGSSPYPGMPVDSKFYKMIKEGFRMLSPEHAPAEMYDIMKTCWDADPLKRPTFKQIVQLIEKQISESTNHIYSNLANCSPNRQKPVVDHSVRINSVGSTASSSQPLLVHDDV
How it was run: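 HTRF read-out of FAM-peptide (1 µM) phosphorylation after anti-phosphotyrosine antibody addition and EDTA quench. Reaction: 5.0 nM wtKIT, 400 µM ATP, 10 mM Mn2+, HEPES pH 7.5, 1% DMSO, 3 h, 25 °C; optional enzyme-compound preincubation; enzyme level set for 10-20% conversion.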

[4] = target: T3, KIT-NanoLuc fusion in HEK293 cells (Homo sapiens, UniProt P10721); experiment: NanoBRET cellular target engagement assay, KIT; assay type: cell-based
T3 construct: expressed in transfected cells; host or cells: HEK293, transient transfection
T3 sequence (P10721 26-976): as above
Method: Exemplary compounds were tested for their ability to inhibit target engagement of KIT or CSF-1R kinases through competitive displacement of a Nano-Luc luciferase kinase fusion in HEK293 cells.
The NanoBRET target engagement assay employs an energy transfer technique designed to measure molecular proximity in living cells. The assay measures the apparent affinity of test compounds by competitive displacement of the NanoBRET tracer, reversibly bound to a NanoLuc luciferase-kinase fusion construct in cells. The intracellular binding affinity and selectivity are physiologically relevant and fundamental to the pharmacological mechanism of the compounds. While biochemical and biophysical assays identify the kinase inhibitors in vitro, the NanoBRET target engagement assay serves to determine the direct interaction of the compounds binding to target kinases in cells.
HEK293 cells transiently expressing NanoLuc-DDR1 fusion vector were seeded into 384-well plates and treated with the Tracer K-4 and compound for 1 hour. The BRET signal was measured on an EnVision 2104 multilabel microplate reader. NanoBRET Target Engagement Assay in HEK293 cells transiently transfected with KIT and CSF1R-NanoLuc Fusion Vector. HEK293 cells were transfected with […] KIT or CSF1R-NanoLuc Fusion Vector and […] carrier DNA. The transfected cells were treated with test compounds (starting at 10 μM, 10-dose with 3-fold dilution) and reference compound (desatinib) (starting at 1 μM, 10-dose with 3-fold dilution). Percent inhibition due to compound activity was calculated to determine IC50.

[5] = target: T4, PDGFRα (Homo sapiens, UniProt P16234); experiment: HTRF biochemical assay, PDGFRα; conditions: Table 4, read-out: PDFGRα Biochemical IC50 avg
T4 construct: purchased Millipore 14-467 (lot 26321_ACTI)
T4 sequence (P16234 24-1089): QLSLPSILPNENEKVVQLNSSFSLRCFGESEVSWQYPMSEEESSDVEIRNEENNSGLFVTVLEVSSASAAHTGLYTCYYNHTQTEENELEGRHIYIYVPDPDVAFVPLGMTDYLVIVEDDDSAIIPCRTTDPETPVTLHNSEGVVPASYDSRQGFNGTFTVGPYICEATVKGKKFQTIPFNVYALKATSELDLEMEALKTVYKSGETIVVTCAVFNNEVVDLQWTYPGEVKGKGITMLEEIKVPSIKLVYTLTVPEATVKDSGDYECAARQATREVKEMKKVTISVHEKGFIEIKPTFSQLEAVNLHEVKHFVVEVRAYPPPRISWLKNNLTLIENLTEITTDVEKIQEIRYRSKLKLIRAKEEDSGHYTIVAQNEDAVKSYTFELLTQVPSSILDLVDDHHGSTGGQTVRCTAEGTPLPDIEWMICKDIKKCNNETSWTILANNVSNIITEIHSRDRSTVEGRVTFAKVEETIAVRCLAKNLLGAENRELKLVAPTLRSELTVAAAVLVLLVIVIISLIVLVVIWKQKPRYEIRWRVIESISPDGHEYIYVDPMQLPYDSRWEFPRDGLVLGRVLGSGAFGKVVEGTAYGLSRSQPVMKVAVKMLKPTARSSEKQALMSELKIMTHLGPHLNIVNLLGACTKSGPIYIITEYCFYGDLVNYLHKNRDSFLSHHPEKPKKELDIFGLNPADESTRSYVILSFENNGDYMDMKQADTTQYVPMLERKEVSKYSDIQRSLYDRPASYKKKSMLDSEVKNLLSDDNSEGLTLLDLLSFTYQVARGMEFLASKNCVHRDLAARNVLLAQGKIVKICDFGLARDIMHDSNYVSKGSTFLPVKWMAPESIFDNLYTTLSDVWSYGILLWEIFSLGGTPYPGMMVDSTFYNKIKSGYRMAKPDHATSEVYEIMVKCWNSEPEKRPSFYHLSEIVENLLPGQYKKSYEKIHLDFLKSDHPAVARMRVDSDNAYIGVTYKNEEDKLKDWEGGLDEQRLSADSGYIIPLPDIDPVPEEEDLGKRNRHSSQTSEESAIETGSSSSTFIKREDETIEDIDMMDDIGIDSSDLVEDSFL
Method: as §1, §2, §3, §4

[6] = tested on: KIT phosphorylation in M-07e cells; experiment: Cell-based KIT phosphorylation in M-07e cells by pKIT ELISA; parameters: species or system human; conditions: SCF stimulation
How it was run: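 Serum-starved M-07e cells (1 × 10^6/mL, overnight) were treated with compounds (8-point 3-fold series from 1 uM) for 2 h at 37 °C, then stimulated with 100 ng/mL SCF for 5 min. Lysate phospho-KIT was captured on anti-phospho-CD117 plates, detected with anti-pY-HRP, and read at 450 nm against a pc-KIT standard curve.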

Cc1nc(-c2ccc(C)c(NC(=O)c3cnc4cc(COCCO)ccn34)c2)no1 [Compound I-110]
Solubility (μM) [1]: * (a solubility greater than 50 μM) | IC50 [2]: 0.5 to 5 µM | IC50 [3]: ≤ 0.05 µM | IC50 [4]: ≤ 0.1 µM | IC50 [5]: 0.5 to 5 µM | IC50 [6]: 0.05 to 0.5 µM
